pIC50: −log10 of the molar value. Structures can show the parent of a compound that is named as a salt. Where no end group is shown, it is not given here.
How the values were obtained:
[1] = test system: adult male cannulated Sprague-Dawley rats; assay: Renal function assessment in rats: GFR by FITC-inulin clearance method; conditions: relative to vehicle-treated rats
Description: A fluorescein isothiocyanate (FITC)-inulin stock solution was prepared by weighing the FITC-inulin powder, adding it to saline (50 mg/ml), and heating it in boiling water until dissolved. The solution was filtered and dialyzed overnight to remove unbound FITC. The next day, the dialysate was again filtered to sterilize it.
Approximately 1-2 weeks before the study, femoral arterial and venous catheters were implanted in the rats under isoflurane anesthesia. The catheters were exteriorized through a spring tether/swivel system and the instrumented rats were housed in specialized cages.
On the experimental day, rats were administered a NEP inhibitor or its vehicle by oral gavage. Thirty min later, FITC-inulin (10 mg/kg i.v. bolus) was administered via the venous catheter. Blood samples were withdrawn from the arterial catheter at 3, 7, 10, 15, 30, 60, 90, and 120 min after the FITC-inulin injection for plasma FITC-inulin and compound concentrations.
Arterial pressure was continuously monitored throughout the experiment.
The stock solution of FITC-inulin was serially diluted to generate a standard curve. The dosing solution was also diluted and analyzed to determine the exact amount of FITC-inulin injected. […] Concentrations of FITC-inulin in the plasma and dosing solution were determined by linear regression from the standard curve. FITC-inulin AUC(O-infinity) was derived by WinNonlin for each rat's plasma concentration-time curves. GFR (FITC-inulin clearance) was calculated for each animal as the injected dose divided by the AUC.

[2] = biological target: recombinant human neutral endopeptidase (NEP, EC 3.4.24.11) (Homo sapiens (Human), UniProt P08473); assay: In vitro inhibition of recombinant human neutral endopeptidase (fluorescence lifetime assay); assay type: biochemical; conditions: 1 hour pre-incubation, effect determined after 1 hour at room temperature, pH 7.4
Chain of recombinant human neutral endopeptidase (NEP, EC 3.4.24.11) (P08473 whole entry): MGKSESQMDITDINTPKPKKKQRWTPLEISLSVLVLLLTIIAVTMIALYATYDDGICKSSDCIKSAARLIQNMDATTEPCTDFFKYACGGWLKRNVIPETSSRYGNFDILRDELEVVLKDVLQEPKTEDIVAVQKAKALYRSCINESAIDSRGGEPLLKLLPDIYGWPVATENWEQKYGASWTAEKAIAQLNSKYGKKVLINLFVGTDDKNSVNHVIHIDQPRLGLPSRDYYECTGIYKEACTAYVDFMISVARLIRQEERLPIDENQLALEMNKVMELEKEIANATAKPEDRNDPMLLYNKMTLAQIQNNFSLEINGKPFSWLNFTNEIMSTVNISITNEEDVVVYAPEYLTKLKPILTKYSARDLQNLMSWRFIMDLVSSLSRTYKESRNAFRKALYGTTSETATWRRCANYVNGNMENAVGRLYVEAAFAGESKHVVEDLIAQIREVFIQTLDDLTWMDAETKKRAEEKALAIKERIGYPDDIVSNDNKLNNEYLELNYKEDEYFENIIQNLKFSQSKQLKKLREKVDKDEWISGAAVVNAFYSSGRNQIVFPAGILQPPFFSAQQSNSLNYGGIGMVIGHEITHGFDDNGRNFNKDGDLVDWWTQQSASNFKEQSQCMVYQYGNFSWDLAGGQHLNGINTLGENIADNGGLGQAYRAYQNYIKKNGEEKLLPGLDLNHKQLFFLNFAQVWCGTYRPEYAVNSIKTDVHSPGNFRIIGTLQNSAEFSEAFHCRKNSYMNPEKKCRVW
Description: The activity of a compound for use in the method according to the present invention can be assessed by the following in vitro & in vivo methods and/or by the following in vitro & in vivo methods well-described in the art. See A fluorescence lifetime-based assay for protease inhibitor profiling on human kallikrein 7 Doering K, Meder G, Hinnenberger M, Woelcke J, Mayr L M, Hassiepen U Biomol Screen.
In particular, the in vitro inhibition of recombinant human neutral endopeptidase (NEP, EC 3.4.24.11) can be determined as follows: […]

[3] = test system: patients with chronic renal insufficiency undergoing cardiac catheterization; conditions: 48 hour infusion at 0.042 μg/kg/min, at-risk patients undergoing cardiac catheterization; cited from earlier work

Molecule	pIC50 [2]	% GFR increase ([1]; dose 1 mg/kg p.o.) [%]	other results
CCOC(=O)C[C@@H](Cc1ccc(-c2cccc(Cl)c2)cc1)NC(=O)CCC(=O)O [Example 1-2, (R)-4-(1-(3′-chlorobiphenyl-4-yl)-4-ethoxy-4-oxobutan-2-ylamino)-4-oxobutanoic acid]	–	–	% GFR increase ([1]; dose 0.1 mg/kg p.o.): 23%
CCOC(=O)C[C@@H](Cc1ccc(-c2ccccc2)cc1)NC(=O)CN1CCC[C@H]1C(=O)OCc1ccccc1 [Example 3-11, (S)-benzyl 1-(2-((R)-1-(biphenyl-4-yl)-4-ethoxy-4-oxobutan-2-ylamino)-2-oxoethyl)pyrrolidine-2-carboxylate trifluoroacetic acid salt]	7.74	–	–
CCCCOC(=O)CCC(=O)N[C@@H](CC(=O)O)Cc1ccc(-c2cccc(Cl)c2)cc1 [Example 3-12, (R)-3-(4-butoxy-4-oxobutanamido)-4-(3′-chlorobiphenyl-4-yl)butanoic acid]	7.82	32	–
CCc1ncc(C(=O)N[C@@H](CC(=O)O)Cc2ccc(-c3cc(Cl)ccc3F)cc2)o1 [Example 9-7]	–	35	–
CCOC(=O)[C@H](C)N[C@@H](Cc1ccc(-c2cccc(Cl)c2)cc1)C(=O)Nc1nnn[nH]1 [Example 31, (S)-2-[(S)-2-(3′-chloro-biphenyl-4-yl)-1-(1H-tetrazol-5-ylcarbamoyl)-ethylamino]-propionic acid ethyl ester]	–	–	% GFR increase ([1]; dose 0.1 mg/kg p.o.): 27%
C[C@H](N[C@@H](Cc1ccc(-c2cccc(Cl)c2)cc1)C(=O)Nc1cc(O)no1)C(=O)O [Example 32-4, (S)-2-[(S)-2-(3′-Chloro-biphenyl-4-yl)-1-(3-hydroxy-isoxazol-5-ylcarbamoyl)-ethylamino]-propionic acid]	8.62	–	–
CCOC(=O)[C@H](C)C[C@@H](Cc1ccc(-c2ccccc2)cc1)NC(=O)CCC(=O)O [Example 34, (2R,4S)-5-Biphenyl-4-yl-4-(3-carboxy-propionylamino)-2-methyl-pentanoic acid ethyl ester]	–	–	% GFR increase ([1]; dose 100 mg/kg p.o.): 37%
CCOC(=O)[C@H](C)C[C@@H](Cc1ccc(-c2cccc(Cl)c2)cc1)NC(=O)CCC(=O)O [Example 35, (2R,4S)-4-(3-carboxy-propionylamino)-5-(3′-chloro-biphenyl-4-yl)-2-methyl-pentanoic acid ethyl ester]	–	22	–
Human Endogenous atrial natriuretic peptides (SLRRSSCFGGRMDRIGAQSGLGCNSFRY; ends and bridges not checked; cysteine pairing not given here; UniProt P01160 124-151, looked up) [Human ANP, "Human Endogenous atrial natriuretic peptides (ANP) infusions have been available in Japan for use in acute decompensated heart failure"; infused at 0.042 μg/kg/min]	–	–	reduction of the incidence of contrast-induced nephropathy [3]: 70%
